Measured values reported in EPA's ToxValDB 9.5.

Test system: Rattus norvegicus
Details: subchronic; oral; diet; M; Fischer 344; Body Weight Changes: decrease + Blood Chemistry: Alp increase, Bile acid increase, ALT increase, SDH increase + Absolute Organ Weight: Liver…

SMILES: Cc1cccc(Nc2cc(Cl)nc(SCC(=O)O)n2)c1C [[4-Chloro-6-(2,3-xylidino)-2-pyrimidinylthio]acetic acid]
- NOEL: < 0.48 mg/kg-day
